We go through 95 molecules from PubChem BioAssay AID651809 (Broad Institute, 2012).

Experiment [1] is described as follows: Light production activators, luxS cqsA deficient V. cholerae strain, confirmatory dry powder (AID 651809). Particulars: V. cholerae BH1578 lux reporter, luminescence, 6 h; at 35 µM (top of the series).
For experiment [2], the system named is V. cholerae BH1578 lux reporter, luminescence, 6 h. The experiment is described as above.

Where “and” joins values, the source holds several entries; their conditions need not be identical. Equal values may be shown once. Calls of active or inactive are those of the source. The rule behind the calls is not given here.

In the case of `Cn1nnc(NCc2ccc(C(F)(F)F)cc2)n1`, the activation in experiment [1] was 1.48% (inactive).
Same read-out and setting: the value for `c1ccc(-c2ccc(CCNC3CCCC3)cc2)cc1` was -0.024% (inactive); that for `O=C(Cc1ccccc1-c1ccccc1)NC1CCCC1` was -0.016% (inactive); that for `CN(Cc1ccc(N2CCCC2)cc1)c1nnnn1C` was 14.6% (inactive).
Same read-out and setting: the value for `CCn1nnnc1NCc1ccccc1` was 0.115% (inactive).
On the same count and under the same terms, the value for `CN1CCC(NC(=O)Cc2ccc(-c3ccccc3)cc2)CC1` was 3.34% (inactive).
`O=C(Cc1ccc(-c2ccccc2)cc1)NC1CCC1`: the AC40 in experiment [2] is 499 nM.
As to `O=C(Cc1cccc(Cl)c1)NC1CCCC1`, the activation in experiment [1] was 0.144% (inactive).
`CCCn1nnnc1NCc1ccc(C(C)C)cc1`: the AC40 in experiment [2] was 529 nM.
For `c1ccc(CNc2nn[nH]n2)cc1`, the activation in experiment [1] was 0.04% (inactive).
In the case of `CC(C)c1ccc(CNc2nn[nH]n2)cc1`, the activation in experiment [1] was 0.032% (inactive).
Still for that read-out and setting: the value for `CN(C)C(=O)Cc1ccc(-c2ccccc2)cc1` was 0.185% (inactive); that for `O=C(Cc1ccc(C(F)(F)F)cc1)NC1CCCC1` was 0.008% (inactive).
On the same count and under the same terms, next, `CC(C)c1ccc(CNc2nnn(C)n2)cc1`: 0.033% (inactive); `CN(C(=O)Cc1ccc(-c2ccccc2)cc1)C1CCCC1`: 0.648% (inactive).
On the same count and under the same terms, next, `Cn1nnc(NCc2ccc(N3CCCC3)cc2)n1`: 0.034% (inactive).
Turning to `O=C(Cc1ccc(-c2ccccc2)cc1)NCc1ccccc1`, the activation in experiment [1] is 0.004% (inactive).
For `O=C(Cc1ccc(-c2ccccc2)cc1)N1CCC(F)(F)CC1`, in experiment [1], the activation is -0.007% (inactive).
The same measure, in the same setting: next, `O=C(CCc1ccc(-c2ccccc2)cc1)NC1CCCC1`: -0.057% (inactive); `O=C(Cc1cccnc1)NC1CCCC1`: -0.043% (inactive).
As for `O=C(Cc1ccc(-c2ccccn2)cc1)NC1CCCC1`, the AC40 in experiment [2] is 10500 nM.
In the case of `O=C(Cc1ccc2ccccc2c1)NC1CCCC1`, the activation in experiment [1] was 1.41% (inactive).
On to `O=C(Cc1ccncc1)NC1CCCC1`, for which the activation in experiment [1] was 0.026% (inactive).
Regarding `O=C(Cc1ccccc1OC(F)(F)F)NC1CCCC1`, in experiment [1], the activation is 0.011% (inactive).
Still for that read-out and setting: next, `CC(C)(C)OC(=O)N1CCC(NC(=O)Cc2ccc(-c3ccccc3)cc2)CC1`: -0.022% (inactive); `O=C(Cc1ccc(OC(F)(F)F)cc1)NC1CCCC1`: 1.25% (inactive).
On to `CC(C)c1ccc(CNc2nnnn2C)cc1`, for which the AC40 in experiment [2] was 4170 nM.
On the same count and under the same terms, the value for `CCC(C)NC(=O)Cc1ccc(-c2ccccc2)cc1` (stereo not given) was 5160 nM.
Regarding `O=C(Cc1ccc(-c2ccccc2)cc1)N1CCC1`, the activation in experiment [1] was 1.77% (inactive).
With `O=C(Cc1ccc(-c2ccccc2)cc1)NCC1CCCC1`, the activation in experiment [1] is 0.056% (inactive).
With `Cc1ccc(CC(=O)NC2CCCC2)cc1`, the activation in experiment [1] is 0.967% (inactive).
For the molecule `Cn1nnnc1NCc1ccc(N2CCCC2)cc1`, in experiment [2], the AC40 was 1030 nM.
On the same count and under the same terms, next, `O=C(Nc1nnc(-c2ccc3c(c2)OCCO3)o1)C1CCCCC1`: 2290 nM.
Consider `O=C(Cc1ccc(-c2ccccc2)cc1)N1CC(F)(F)C1`, for which the activation in experiment [1] was 1.11% (inactive).
The same measure, in the same setting: the value for `O=C(Cc1ccc(-c2ccccc2)cc1)N1CCCCC1` was -0.022% (inactive).
Turning to `CC(C(=O)NC1CCCC1)c1ccc(-c2ccccc2)cc1` (stereo not given), in experiment [1], the activation was -0.069% (inactive).
The same measure, in the same setting: the value for `O=C(Cc1cccc(F)c1)NC1CCCC1` was 0.009% (inactive); that for `CCn1nnc(NCc2ccc(C(F)(F)F)cc2)n1` was -0.033% (inactive).
On the same count and under the same terms, next, `CN1CCN(C(=O)Cc2ccc(-c3ccccc3)cc2)CC1`: -0.018% (inactive); `CS(=O)(=O)c1cccc(CC(=O)NC2CCCC2)c1`: 0.049% (inactive).
For `CC(C)NC(=O)Cc1ccc(-c2ccccc2)cc1`, the AC40 in experiment [2] is 1900 nM.
`O=C(NC1CCCC1)Oc1ccc(-c2ccccc2)cc1`: the activation in experiment [1] was -0.045% (inactive).
As to `O=C(Cc1ccc(-c2ccccc2)cc1)NC1CCCC1`, the AC40 in experiment [2] is 890 nM and 645 nM.
`CCn1nnc(NCc2ccc(C(C)C)cc2)n1`: in experiment [1], the activation was 0.061% (inactive).
Same read-out and setting: next, `CS(=O)(=O)c1ccc(CC(=O)NC2CCCC2)cc1`: -0.009% (inactive); `O=C(Cc1ccc(-c2cccnc2)cc1)NC1CCCC1`: 15.8% (inactive).
Still for that read-out and setting: next, `CN(Cc1ccc(N2CCCC2)cc1)c1nnn(C)n1`: -0.005% (inactive); `O=C(Cc1cccc(-c2ccccc2)c1)NC1CCCC1`: 18% (inactive); `COc1cccc(CC(=O)NC2CCCC2)c1`: -0.014% (inactive).
Take `Cc1cccc(CC(=O)NC2CCCC2)c1`: in experiment [1], the activation is 0.44% (inactive).
With `CCn1nnnc1NCc1ccc(N2CCCC2)cc1`, in experiment [2], the AC40 is 149 nM and < 135 nM.
`CNC(=O)Cc1ccc(-c2ccccc2)cc1`: the activation in experiment [1] was 0.578% (inactive).
On to `CCn1nnnc1NCc1cccn1C`, for which the activation in experiment [1] was -0.015% (inactive).
Still for that read-out and setting: next, `O=C(Cc1ccccc1)NC1CCCC1`: -0.05% (inactive); `O=C(Cc1cccc(C(F)(F)F)c1)NC1CCCC1`: 0.024% (inactive).
In the case of `O=C(Cc1ccc(-c2ccccc2)cc1)NC1CCOCC1`, the AC40 in experiment [2] is 5660 nM.
As to `CCc1ccc(C(=O)Nc2nnnn2CC)cc1`, in experiment [1], the activation was -0.042% (inactive).
Same read-out and setting: the value for `O=C(Cc1ccccc1F)NC1CCCC1` was 0.011% (inactive); that for `c1cc(N2CCCC2)ccc1CNc1nn[nH]n1` was -0.038% (inactive); that for `O=C(Cc1ccc(-c2ccccc2)cc1)NC1CCCCC1` was 10.4% (inactive).
The same measure, in the same setting: next, `O=C(Cc1ccc(-c2ccccc2)cc1)NC1CCNCC1`: 0.085% (inactive).
With `CCNC(=O)Cc1ccc(-c2ccccc2)cc1`, in experiment [2], the AC40 is > 35000 nM (inactive).
As to `CCn1nnc(NCc2ccccc2)n1`, the activation in experiment [1] is 0.35% (inactive).
The same measure, in the same setting: the value for `O=C(Cc1cccc(OC(F)(F)F)c1)NC1CCCC1` was 1.1% (inactive).
On the same count and under the same terms, next, `O=C(Cc1ccc(F)cc1)NC1CCCC1`: 0.012% (inactive); `Cn1nnc(NCc2ccccc2)n1`: -0.02% (inactive).
For the molecule `O=C(Cc1ccc(-c2ccccc2)cc1)N1CCCC1`, the activation in experiment [1] was 0.018% (inactive).
`Cn1nnnc1NCc1ccccc1`: the activation in experiment [1] is -0.011% (inactive).
As for `CC(C)n1nnc(NCc2ccc(N3CCCC3)cc2)n1`, the activation in experiment [1] is -0.029% (inactive).
`CCC(CC)NC(=O)Cc1ccc(-c2ccccc2)cc1`: the AC40 in experiment [2] is 4420 nM.
`COc1ccc(CC(=O)NC2CCCC2)cc1`: the activation in experiment [1] was 2.06% (inactive).
Still for that read-out and setting: the value for `FC(F)(F)c1ccc(CNc2nn[nH]n2)cc1` was -0.017% (inactive).
For the molecule `CCn1nnnc1NCc1ccc(C(C)C)cc1`, the AC40 in experiment [2] is 187 nM.
Regarding `O=C(Cc1ccccc1I)NC1CCCC1`, the activation in experiment [1] is 0.012% (inactive).
On the same count and under the same terms, the value for `N#Cc1ccc(CC(=O)NC2CCCC2)cc1` was -0.056% (inactive).
On the same count and under the same terms, next, `O=C(Cc1ccccn1)NC1CCCC1`: 0.07% (inactive); `N#Cc1cccc(CC(=O)NC2CCCC2)c1`: -0.04% (inactive); `CCn1nnnc1NC(=O)c1ccc(N2CCCC2)cc1`: 0.669% (inactive).
Same read-out and setting: next, `COc1ccccc1CC(=O)NC1CCCC1`: 0.627% (inactive); `O=C(Cc1ccc(-c2ccncc2)cc1)NC1CCCC1`: 1.61% (inactive).
Take `O=C(NCc1ccc(-c2ccccc2)cc1)C1CCCC1`: the activation in experiment [1] was 0.158% (inactive) and 0.134% (inactive).
As for `Cc1ccccc1CC(=O)NC1CCCC1`, the AC40 in experiment [2] is 7560 nM.
For `O=C(Nc1ccc(-c2ccccc2)cc1)NC1CCCC1`, the activation in experiment [1] was 0.069% (inactive).
Regarding `O=C(O)Cc1ccc(-c2ccccc2)cc1`, the activation in experiment [1] was 0.008% (inactive).
As to `O=C(Cc1ccccc1C(F)(F)F)NC1CCCC1`, the activation in experiment [1] is 0.015% (inactive).
On to `Cn1nnnc1NCc1ccc(C(F)(F)F)cc1`, for which, in experiment [1], the activation is 0.204% (inactive).
Regarding `O=C(Cc1ccc(-c2ccccc2)cc1)Nc1ccccc1`, the activation in experiment [1] was 0.038% (inactive).
On the same count and under the same terms, the value for `CCN(Cc1ccc(N2CCCC2)cc1)c1nnnn1CC` was 1.22% (inactive).
On to `Cc1ccc2cc3c(NC(=O)c4ccco4)nn(C)c3nc2c1`, for which the AC40 in experiment [2] was 10400 nM.
The same measure, in the same setting: the value for `CCn1nnnc1NCc1ccc(C(F)(F)F)cc1` was 17800 nM.
As to `CC(C)n1nnnc1NCc1ccc(N2CCCC2)cc1`, the activation in experiment [1] is 133% (inactive).
Take `O=C(Cc1ccccc1Cl)NC1CCCC1`: the activation in experiment [1] is 0.002% (inactive).
`O=C(Cc1ccc(-c2ccccc2)cc1)N1CCOCC1`: the activation in experiment [1] is 0.215% (inactive).
Same read-out and setting: the value for `O=C(Cc1ccc(Cl)cc1)NC1CCCC1` was 0.645% (inactive).
For the molecule `CCn1nnc(NCc2ccc(N3CCCC3)cc2)n1`, in experiment [1], the activation is -0.042% (inactive) and -0.061% (inactive).
